Consider two compounds from patent publication US6410265B1, “Gene encoding a putive efflux protein for solvents/antibiotics in Pseudomonas mendocina” (priority 1997, dated 2002).

Experiment [1] concerns 4.5X(−) Pseudomonas. Put plainly: Antibiotic resistance: colony growth on LB/agar plates with antibiotics. The note with it: strain with disrupted 4.5X gene; agar plates, concentration ranging from 5 1μg/mL to 25 μg/mL. The experiment is classed as cell-based, Pseudomonas mendocina. As to the method:
(§1) The transformed Pseudomonas mendocina KR-1, carrying the disrupted putative efflux 4.5X gene, was grown on the agar plates in the presence of different antibiotics or high concentration of PHBA. The growth of the strain with the disrupted 4.5X gene was compared with that of wild type Pseudomonas mendocina strain KR-1.
The colonies were innoculated on the LB plates with different antibiotics separately. The antibiotics include Amp (50 μg/mL), Strep (10 μg/mL), Tec (10 μg/mL), Kam (25 μg/mL) and CM (5 μg/mL, 15 μg/mL and 25 μg/mL). The plates were kept at 30° C. for 48 hour. The growth of the colonies was scored based on the growth of wildtype strain KR-1 and the growth of these colonies on LB plates.

Experiment [2] deals with 4.5X(−). Nature of the experiment: Sensitivity to PHBA: cell growth in liquid minimal medium by optical density. Format: cell-based, Pseudomonas mendocina. Particulars: in the presence of 50 mM PHBA, same condition for both strains. As to the method: as §1
The cells were innoculated in the liquid medium consisting of minimal medium (in 1 L solution, sodium phosphate, monobasic, 1.85 g; potassium phosphate, dibasic, 5.84 g; ammonia sulphate, 1.5 g; yeast extract, 500 mg; 1x minerals, 2% glucose and 50 mM PHBA). The cultures were kept at 30° C. in a shaker incubator for 48 hours. The cell growth was monitored by optical density (O.D) measurements using a spectrophotometer.

Take `O=C(N[C@H](CO)[C@H](O)c1ccc([N+](=O)[O-])cc1)C(Cl)Cl` [CM, choromphenecol]: the “Growth on plates with chloramphenicol” value in experiment [1] is on record as “unable to grow”.
For the compound `O=C(O)c1ccc(O)cc1` [PHBA, p-hydroxybenzoic acid], in experiment [2], the “Growth of 4.5X(−) strain relative to wildtype strain” value is “four times slower”.
